In patent US6365191B1, “Formulations of paclitaxel, its derivatives or its analogs entrapped into nanoparticles of polymeric micelles, process for preparing same and the use thereof” (Dabur Research Foundation, priority 1999, dated 2002):

Assay: Stability of the resulting drug solutions (paclitaxel in nanoparticles of polymeric micelles)
Format: physicochemical
Procedure: (§1) The polymer (5 mg) was dissolved in 5 ml of the diluting fluid followed by the addition of the anionic surfactant sodium deoxycholate (5 mg) to obtain a clear solution. Paclitaxel solution in absolute alcohol (20 mg/ml) was then added to the solution of polymer and the surfactant to obtain drug concentrations of 0.1, 0.15 and 0.2 mg/ml. Different diluting fluids were tried and the stability of the resulting drug solutions are tabulated below:
(§2) The polymer (5 mg) was dissolved in 5 ml of the diluting fluid followed by the addition of the anionic surfactant sodium deoxycholate (5 mg) to obtain a clear solution. Paclitaxel solution in absolute alcohol (20 mg/ml) was then added to the solution of polymer and the surfactant to get drug concentrations of 0.2, 0.25 and 0.3 mg/ml. The stability of the resulting drug solutions are tabulated below:
as §1, with “of” for “of 0.1, 0.15 and”
as §2, with “solution. pH of the resulting solution was adjusted with sodium citrate.” for “solution.”, “obtain” for “get”, “0.2” for “0.2, 0.25 and 0.3”, “Results” for “The stability of the resulting drug solutions”
The requisite amount of polymer was dissolved in 5 ml of the diluting fluid followed by the addition of requisite amount of anionic surfactant sodium deoxycholate to obtain the concentrations shown in the table below. pH of the resulting solution was adjusted to 6.4-6.8 with sodium citrate. Paclitaxel solution in absolute alcohol (20 mg/ml) was then added to the solution of polymer and the surfactant to obtain drug concentrations of 0.2 mg/ml. Results are tabulated below:
The polymer (0.625 mg) was dissolved in 5 ml of the diluting fluid followed by the addition of the anionic surfactant sodium deoxycholate to obtain a clear solution. pH of the resulting solution was adjusted to 6.4-6.8 with sodium citrate.
Paclitaxel solution in absolute alcohol (20 mg/ml) was then added to the solution of polymer and the surfactant to obtain drug concentrations of 0.2 mg/ml. Results are tabulated below:
The requisite amount of the polymer was dissolved in 5 ml of the diluting fluid followed by the addition of requisite amount of the anionic surfactant sodium deoxycholate to obtain the concentrations shown in the table below. pH of the resulting solution was adjusted to 6.4-6.8 with sodium citrate. Paclitaxel solution in absolute alcohol (20 mg/ml) was then added to the solution of polymer and the surfactant to get drug concentrations of 0.2, 0.5, 0.6, 0.7, 0.8, 2.4, 3.2, 4.0, and 10 mg/ml. Results are tabulated below:
The polymer (1.5 mg) was dissolved in 5 ml of the diluting fluid followed by the addition of the anionic surfactant sodium to obtain concentrations of 0, 0.10, 0.15, 0.20 and 0.25 mg/ml. pH of the resulting solution was adjusted to 6.4-6.8 with sodium citrate. Paclitaxel solution in absolute alcohol (20 mg/ml) was then added to the solution of polymer and the surfactant to obtain drug concentrations of 0.6 mg/ml. Results are tabulated below:
The required amount of the drug solution (3 ml) is added to the vehicle to obtain a drug concentration of 0.6 mg/ml. The perfusion fluid is stable for more than 12 hrs without any apparent signs of precipitation of drug. Stability is also indicated by the fact that more than 90% of the drug is available in solution form at the end of 24 hrs, when analyzed by HPLC.

What does the source list for `CC(=O)O[C@H]1C(=O)[C@@]2(C)[C@H]([C@H](OC(=O)c3ccccc3)[C@]3(O)C[C@H](OC(=O)[C@H](O)[C@@H](NC(=O)c4ccccc4)c4ccccc4)C(C)=C1C3(C)C)[C@]1(OC(C)=O)CO[C@@H]1C[C@@H]2O` [Paclitaxel, paclitaxel]?
Stability (Examples 1-9, row 1: Water for Injection, polymer 1 mg/ml, sodium DOC 1 mg/ml, paclitaxel 0.10 mg/ml, 10% loading): <1 h; Stability (Examples 1-9, row 2: Water for Injection, polymer 1 mg/ml, sodium DOC 1 mg/ml, paclitaxel 0.15 mg/ml, 15% loading): <1 h; Stability (Examples 1-9, row 3: Water for Injection, polymer 1 mg/ml, sodium DOC 1 mg/ml, paclitaxel 0.20 mg/ml, 20% loading): <1 h; Stability (Examples 1-9, row 4: Normal Saline, polymer 1 mg/ml, sodium DOC 1 mg/ml, paclitaxel 0.10 mg/ml, 10% loading): <1 h; Stability (Examples 1-9, row 5: Normal Saline, polymer 1 mg/ml, sodium DOC 1 mg/ml, paclitaxel 0.15 mg/ml, 15% loading): <1 h; Stability (Examples 1-9, row 6: Normal Saline, polymer 1 mg/ml, sodium DOC 1 mg/ml, paclitaxel 0.20 mg/ml, 20% loading): <1 h; Stability (Examples 1-9, row 7: 5% Dextrose, polymer 1 mg/ml, sodium DOC 1 mg/ml, paclitaxel 0.10 mg/ml, 10% loading): >8 h; Stability (Examples 1-9, row 8: 5% Dextrose, polymer 1 mg/ml, sodium DOC 1 mg/ml, paclitaxel 0.15 mg/ml, 15% loading): >6 h; Stability (Examples 1-9, row 9: 5% Dextrose, polymer 1 mg/ml, sodium DOC 1 mg/ml, paclitaxel 0.20 mg/ml, 20% loading): >4 h; Stability (Examples 10-12, row 1: 5% Dextrose, polymer 1 mg/ml, sodium DOC 1 mg/ml, paclitaxel 0.20 mg/ml, 20% loading): >4 h; Stability (Examples 10-12, row 2: 5% Dextrose, polymer 1 mg/ml, sodium DOC 1 mg/ml, paclitaxel 0.25 mg/ml, 25% loading): <4 h; Stability (Examples 10-12, row 3: 5% Dextrose, polymer 1 mg/ml, sodium DOC 1 mg/ml, paclitaxel 0.30 mg/ml, 30% loading): <4 h; Stability (Examples 13-14, row 1: 5% Dextrose (pH 5.1), polymer 1 mg/ml, sodium DOC 1 mg/ml, paclitaxel 0.20 mg/ml, 20% loading): >4 h; Stability (Examples 13-14, row 2: 10% Dextrose (pH 5.1), polymer 1 mg/ml, sodium DOC 1 mg/ml, paclitaxel 0.20 mg/ml, 20% loading): >6 h; Stability (Examples 15-17, row 1: 10% Dextrose (pH 3.9), polymer 1 mg/ml, sodium DOC 1 mg/ml, sodium citrate 0.00 mg/ml, pH 6.28, paclitaxel 0.20 mg/ml): <1 h; Stability (Examples 15-17, row 2: 10% Dextrose (pH 3.9), polymer 1 mg/ml, sodium DOC 1 mg/ml, sodium citrate 0.06 mg/ml, pH 6.36, paclitaxel 0.20 mg/ml): >6 h; Stability (Examples 15-17, row 3: 10% Dextrose (pH 3.9), polymer 1 mg/ml, sodium DOC 1 mg/ml, sodium citrate 0.12 mg/ml, pH 6.53, paclitaxel 0.20 mg/ml): >4 h; Stability (Examples 19-23, row 1: 10% Dextrose, polymer 1 mg/ml, sodium DOC 1 mg/ml, pH 6.45, paclitaxel 0.20 mg/ml): >6 h; Stability (Examples 19-23, row 2: 10% Dextrose, polymer 0.5 mg/ml, sodium DOC 0.5 mg/ml, pH 6.44, paclitaxel 0.20 mg/ml): >6 h; Stability (Examples 19-23, row 3: 10% Dextrose, polymer 0.25 mg/ml, sodium DOC 0.25 mg/ml, pH 6.46, paclitaxel 0.20 mg/ml): >6 h; Stability (Examples 19-23, row 4: 10% Dextrose, polymer 0.125 mg/ml, sodium DOC 0.125 mg/ml, pH 6.47, paclitaxel 0.20 mg/ml): >6 h; Stability (Examples 19-23, row 5: 10% Dextrose, polymer 0.0625 mg/ml, sodium DOC 0.0625 mg/ml, pH 6.44, paclitaxel 0.20 mg/ml): <6 h; Stability (Examples 24-27, row 1: 10% Dextrose, polymer 0.125 mg/ml, sodium DOC 0.03125 mg/ml, pH 6.4-6.8, paclitaxel 0.20 mg/ml): <1 h; Stability (Examples 24-27, row 2: 10% Dextrose, polymer 0.125 mg/ml, sodium DOC 0.0625 mg/ml, pH 6.4-6.8, paclitaxel 0.20 mg/ml): <2 h; Stability (Examples 24-27, row 3: 10% Dextrose, polymer 0.125 mg/ml, sodium DOC 0.09375 mg/ml, pH 6.4-6.8, paclitaxel 0.20 mg/ml): >6 h; Stability (Examples 24-27, row 4: 10% Dextrose, polymer 0.125 mg/ml, sodium DOC 0.125 mg/ml, pH 6.4-6.8, paclitaxel 0.20 mg/ml): >6 h; Stability (Examples 28-35: 10% Dextrose, polymer 0.125 mg/ml, sodium DOC 0.125 mg/ml, pH 6.4-6.8, paclitaxel 0.20 mg/ml): >6 h; Stability (Examples 28-35: 10% Dextrose, polymer 0.125 mg/ml, sodium DOC 0.125 mg/ml, pH 6.4-6.8, paclitaxel 0.50 mg/ml): <4 h; Stability (Examples 28-35: 10% Dextrose, polymer 0.125 mg/ml, sodium DOC 0.125 mg/ml, pH 6.4-6.8, paclitaxel 0.80 mg/ml): <2 h; Stability (Examples 28-35: 10% Dextrose, polymer 0.125 mg/ml, sodium DOC 0.125 mg/ml, pH 6.4-6.8, paclitaxel 2.4 mg/ml): <1 h; Stability (Examples 28-35: 10% Dextrose, polymer 0.125 mg/ml, sodium DOC 0.125 mg/ml, pH 6.4-6.8, paclitaxel 3.2 mg/ml): <0.5 h; Stability (Examples 28-35: 10% Dextrose, polymer 0.125 mg/ml, sodium DOC 0.125 mg/ml, pH 6.4-6.8, paclitaxel 4.0 mg/ml): <0.25 h; Stability (Examples 28-35: 10% Dextrose, polymer 0.125 mg/ml, sodium DOC 0.125 mg/ml, pH 6.4-6.8, paclitaxel 10.0 mg/ml): <0.083 h; Stability (Examples 28-35: 10% Dextrose, polymer 0.2 mg/ml, sodium DOC 0.2 mg/ml, pH 6.4-6.8, paclitaxel 0.80 mg/ml): <3 h; Stability (Examples 28-35: 10% Dextrose, polymer 0.3 mg/ml, sodium DOC 0.3 mg/ml, pH 6.4-6.8, paclitaxel 0.50 mg/ml): >6 h; Stability (Examples 28-35: 10% Dextrose, polymer 0.3 mg/ml, sodium DOC 0.3 mg/ml, pH 6.4-6.8, paclitaxel 0.60 mg/ml): <6 h; Stability (Examples 28-35: 10% Dextrose, polymer 0.3 mg/ml, sodium DOC 0.3 mg/ml, pH 6.4-6.8, paclitaxel 0.70 mg/ml): <4 h; Stability (Examples 28-35: 10% Dextrose, polymer 0.3 mg/ml, sodium DOC 0.3 mg/ml, pH 6.4-6.8, paclitaxel 0.80 mg/ml): <2 h; Stability (Examples 36-40, row 1: 10% Dextrose, polymer 0.3 mg/ml, sodium DOC 0 mg/ml, pH 6.4-6.8, paclitaxel 0.60 mg/ml): <0.5 h; Stability (Examples 36-40, row 2: 10% Dextrose, polymer 0.3 mg/ml, sodium DOC 0.10 mg/ml, pH 6.4-6.8, paclitaxel 0.60 mg/ml): <1 h; Stability (Examples 36-40, row 3: 10% Dextrose, polymer 0.3 mg/ml, sodium DOC 0.15 mg/ml, pH 6.4-6.8, paclitaxel 0.60 mg/ml): <4 h; Stability (Examples 36-40, row 4: 10% Dextrose, polymer 0.3 mg/ml, sodium DOC 0.2 mg/ml, pH 6.4-6.8, paclitaxel 0.60 mg/ml): >8 h; Stability (Examples 36-40, row 5: 10% Dextrose, polymer 0.3 mg/ml, sodium DOC 0.25 mg/ml, pH 6.4-6.8, paclitaxel 0.60 mg/ml): >8 h
